Results from US9101588B2, “Composition for lowering blood uric acid level” (TAISHO PHARMACEUTICAL CO., LTD., priority 2009, dated 2015).

Assays:
Assay type in all cases: in vivo, human
[1] = system: subjects thought to have hyperuricemia; experiment: Test Example 3: randomized double blind test, serum uric acid level and uric acid clearance value, powder of Example 1 vs placebo, 14 days; settings: 1 hour before administration at start vs 3 hours before administration at completion, 2000 mg taurine twice a day, FIG. 1
[2] = system: subjects thought to have hyperuricemia; experiment: as above
Method: (§1) Sixteen subjects who were 20 years old or older and thought to have hyperuricemia under the following conditions were grouped into 2 each consisting of 8 subjects. A placebo and the powder prepared in Example 1 were administered to the respective groups twice a day by 2.04 g (2000 mg in terms of taurine amount) in a single dose for 14 days. The change in the uric acid level was checked by a randomized double blind test.
Before this test was started, screening tests were conducted twice. Subjects who met the condition of Condition below in the first screening test were subjected to the second screening. Subjects who met Condition again in the second screening test were subjected to this test. Furthermore, in this test, in order to check the change in a uric acid clearance value that would influence the change in the uric acid level, the uric acid level and the uric acid clearance value were measured four times, that is, 1 hour before administration, 1 hour after administration, 2 hours after administration, and 3 hours after administration when the taurine administration was started as well as similarly four times when the administration was completed. It should be noted that in order to make conditions equal between when the administration was started and when completed, the subjects were stayed in a hospital 3 days and 2 nights before each measurement, and had the same meals.
Incidentally, one case which was assigned to the taurine-administered group was terminated because another disease occurred during the 14-day administration period.
Condition: serum uric acid level was 7.0 mg/dL or above but below 9.0 mg/dL
In addition, as in Test Examples 1 and 2, each administration group was sub-grouped with a benchmark of the uric acid level of 7.0 mg/dL at the start. The percentage of change in the uric acid level was compared in each group.
Next, the change (ratio of change) in the uric acid clearance value, when the administration was started, representing uric acid-excretion efficiency was compared between the administration groups.
Moreover, the change (ratio of change) in the uric acid clearance value when the administration was completed was also compared between the administration groups.

[3] = system: subjects of Test Examples 1 to 3; experiment: Taurine-administered cases of Test Examples 1 to 3 summed, degree of uric acid level changed; settings: for uric acid level degree changed MAX / uric acid level degree changed MEDIAN / uric acid level degree changed MIN / uric acid level degree changed MEAN: start to completion; for mean value of uric acid level decreased by / median of uric acid level decreased by: Table 6
Method: Next, degrees of serum uric acid levels changed before and after the administration in the taurine-administered cases of Test Examples 1 to 3 were lined up in the order of subjects having higher levels before the administration.
Moreover, the taurine-administered cases of Test Examples 1 to 3 were summed and sub-grouped with a benchmark of the uric acid level of 7.0 mg/dL at the start. Degrees of uric acid levels changed were compared between the sub-groups.

[4] = system: subjects thought to have lifestyle diseases; experiment: Test Example 1: randomized double blind test, change in uric acid level, powder of Example 1 vs placebo, 14 days; settings: for uric acid level degree changed MAX / uric acid level degree changed MEDIAN / uric acid level degree changed MIN / uric acid level degree changed MEAN: start to completion
Method: as §1, with “Forty” for “Sixteen”, “lifestyle diseases” for “hyperuricemia”, “20” for “8”
Before this test was started, screening tests were conducted twice. Subjects who met all the conditions of Conditions 1 to 3 below in the first screening test were subjected to the second screening. Further, since the amount of taurine in the body seemed to influence the result of this test, subjects who met Condition 4 in addition to Conditions 1 to 3 in the second screening test were subjected to this test. In each administration group, the result was sub-grouped with a benchmark of the uric acid level of 7.0 mg/dL which served as the index for hyperuricemia. The uric acid levels were compared between the groups.
Incidentally, one case which was assigned to the taurine-administered group was terminated because another disease occurred before the administration was started.
Condition 1: LDL cholesterol was 140 mg/dL or above
Condition 2: triglyceride was 150 mg/dL or above but below 400 mg/dL
Condition 3: total cholesterol was 220 mg/dL or above
Condition 4: an amount of urinary taurine excreted (in urine collected for 24 hours) was 1500 μmol or below
In addition, each administration group was sub-grouped with a benchmark of the uric acid level of 7.0 mg/dL at the start, and the percentage of change in the uric acid level was compared in each group.

[5] = start level 7.0 mg/dL or above, 4 cases
[6] = start level below 7.0 mg/dL, 3 cases
[7] = start level 7.0 mg/dL or above, 60 cases, at completion
[8] = start level 7.0 mg/dL or above, 60 cases, at start
[9] = start level 7.0 mg/dL or above, 60 cases
[10] = start level below 7.0 mg/dL, 87 cases, at completion
[11] = start level below 7.0 mg/dL, 87 cases, at start
[12] = start level below 7.0 mg/dL, 87 cases
[13] = subjects with uric acid level 7.0 mg/dL or above
[14] = subjects with uric acid level below 7.0 mg/dL
[15] = start level 7.0 mg/dL or above, 8 cases
[16] = start level 7.0 mg/dL or above, 8 cases, at completion (14 days)
[17] = start level 7.0 mg/dL or above, 8 cases, at start
[18] = start level below 7.0 mg/dL, 11 cases
[19] = start level below 7.0 mg/dL, 11 cases, at completion (14 days)
[20] = start level below 7.0 mg/dL, 11 cases, at start
[21] = subjects with uric acid level 7.0 mg/dL or above, Table 1
[22] = subjects with uric acid level below 7.0 mg/dL, Table 1

## NCCS(=O)(=O)O [Taurine, aminoethylsulfonic acid]
[1]
  mean value of serum uric acid level decreased by: 0.53 mg/dL
[2]; [5]
  Change in uric acid level: subjects who did not show decrease: 0 (0.0) ( ): %
  Change in uric acid level: subjects who showed decrease: 4 (100.0) ( ): %
[2]; start level 7.0 mg/dL or above, 4 cases, listed as taurine
  Change in uric acid level: subjects who showed decrease: 4 ( ): %
[2]; [6]
  Change in uric acid level: subjects who did not show decrease: 1 (33.3) ( ): %
  Change in uric acid level: subjects who showed decrease: 2 (66.7) ( ): %
[2]; when the administration was completed, 2 hours after the administration, FIG. 3
  uric acid clearance value, mean ratio of change (increase): ≥ 30%
[2]; when the administration was completed, 3 hours after the administration, FIG. 3
  uric acid clearance value, mean ratio of change (increase): ≥ 20%
[2]; when the administration was started, 2 hours after the administration, FIG. 2
  uric acid clearance value, mean ratio of change (increase): ≥ 40%
[2]; when the administration was started, 3 hours after the administration, FIG. 2
  uric acid clearance value, mean ratio of change (increase): ≥ 30%
[3]; 7.0 mg/dL or above vs below 7.0 mg/dL, 95% CI −0.69 to −0.30, P < 0.001
  two-sample t-test estimation: difference in degree changed between sub-groups: −0.49[−0.69 mg/dL
[3]; results of Test Examples 1 to 3
  uric acid level after oral administration (conclusion): significant decrease
[3]; [7]
  uric acid level MAX: 10.6 mg/dL
  uric acid level MEAN: 7.33 mg/dL
  uric acid level MEDIAN: 7.35 mg/dL
  uric acid level MIN: 4.6 mg/dL
[3]; [8]
  uric acid level MAX: 10.8 mg/dL
  uric acid level MEDIAN: 7.80 mg/dL
  uric acid level MIN: 7.0 mg/dL
[3]; start level 7.0 mg/dL or above, 60 cases, at start, Test Examples 1 to 3 summed
  uric acid level MEAN: 7.95 mg/dL
[3]; [9]
  uric acid level degree changed MAX: 0.7 mg/dL
  uric acid level degree changed MEDIAN: -0.60 mg/dL
  uric acid level degree changed MIN: -2.6 mg/dL
[3]; start level 7.0 mg/dL or above, 60 cases, one-sample t-test P < 0.001
  uric acid level degree changed MEAN: -0.62 mg/dL
[3]; [10]
  uric acid level MAX: 7.6 mg/dL
  uric acid level MEAN: 5.54 mg/dL
  uric acid level MEDIAN: 5.5 mg/dL
  uric acid level MIN: 1.1 mg/dL
[3]; [11]
  uric acid level MAX: 6.9 mg/dL
  uric acid level MEAN: 5.67 mg/dL
  uric acid level MEDIAN: 5.8 mg/dL
  uric acid level MIN: 0.8 mg/dL
[3]; [12]
  uric acid level degree changed MAX: 1.0 mg/dL
  uric acid level degree changed MEDIAN: -0.1 mg/dL
  uric acid level degree changed MIN: -1.6 mg/dL
[3]; start level below 7.0 mg/dL, 87 cases, one-sample t-test P = 0.028
  uric acid level degree changed MEAN: -0.13 mg/dL
[3]; [13]
  mean value of uric acid level decreased by: 0.62 mg/dL
  median of uric acid level decreased by: 0.60 mg/dL
[3]; [14]
  mean value of uric acid level decreased by: 0.13 mg/dL
  median of uric acid level decreased by: 0.1 mg/dL
[4]; [15]
  Change in uric acid level: subjects who did not show decrease: 0 (0.0) ( ): %
  Change in uric acid level: subjects who showed decrease: 8 (100.0) ( ): %
  uric acid level degree changed MAX: -0.3 mg/dL
  uric acid level degree changed MEDIAN: -0.70 mg/dL
  uric acid level degree changed MIN: -1.3 mg/dL
[4]; [16]
  uric acid level MAX: 8.3 mg/dL
  uric acid level MEAN: 7.36 mg/dL
  uric acid level MEDIAN: 7.50 mg/dL
  uric acid level MIN: 6.4 mg/dL
[4]; [17]
  uric acid level MAX: 9.1 mg/dL
  uric acid level MEDIAN: 8.30 mg/dL
  uric acid level MIN: 7.0 mg/dL
[4]; start level 7.0 mg/dL or above, 8 cases, at start, 2000 mg taurine twice a day, 14 days
  uric acid level MEAN: 8.11 mg/dL
[4]; start level 7.0 mg/dL or above, 8 cases, listed as taurine
  Change in uric acid level: subjects who showed decrease: 8 ( ): %
[4]; start level 7.0 mg/dL or above, 8 cases, one-sample t-test P < 0.001
  uric acid level degree changed MEAN: -0.75 mg/dL
[4]; start level 7.0 mg/dL or above, 95% CI −1.42 to −0.15, P = 0.020
  two-sample t-test estimation: difference in degree changed, taurine group vs placebo group: −0.78[−1.42 mg/dL
[4]; [18]
  Change in uric acid level: subjects who did not show decrease: 6 (54.5) ( ): %
  Change in uric acid level: subjects who showed decrease: 5 (45.5) ( ): %
  uric acid level degree changed MAX: 0.5 mg/dL
  uric acid level degree changed MEDIAN: 0.1 mg/dL
  uric acid level degree changed MIN: -0.9 mg/dL
[4]; [19]
  uric acid level MAX: 6.5 mg/dL
  uric acid level MEAN: 5.49 mg/dL
  uric acid level MEDIAN: 5.9 mg/dL
  uric acid level MIN: 1.1 mg/dL
[4]; [20]
  uric acid level MAX: 6.8 mg/dL
  uric acid level MEAN: 5.54 mg/dL
  uric acid level MEDIAN: 5.9 mg/dL
  uric acid level MIN: 0.8 mg/dL
[4]; start level below 7.0 mg/dL, 11 cases, one-sample t-test P = 0.747
  uric acid level degree changed MEAN: -0.05 mg/dL
[4]; start level below 7.0 mg/dL, 95% CI −0.44 to 0.18, P = 0.386
  two-sample t-test estimation: difference in degree changed, taurine group vs placebo group: −0.13[−0.44 mg/dL
[4]; [21]
  mean value of uric acid level decreased by: 0.75 mg/dL
  median of uric acid level decreased by: 0.70 mg/dL
[4]; [22]
  mean value of uric acid level decreased by: 0.05 mg/dL
  median of uric acid level increased by: 0.1 mg/dL
[4]; taurine group, 7.0 mg/dL or above vs below 7.0 mg/dL, 95% CI −1.09 to −0.31, P = 0.001
  two-sample t-test estimation: difference in degree changed between sub-groups: −0.70[−1.09 mg/dL
